Source: patent US20230416196A1, “DIMER OF BIGUANIDINES AND THEIR THERAPEUTIC USES” (INSTITUT CURIE, priority 2020, published 2023)

Assays:
HMLER CD44^high/CD24^low = test: Cell viability assay (CellTiter-Blue) on breast cancer stem cell model HMLER CD44high/CD24low; type: cell-based, human
Description: Cell viability assay (IC50). Cell viability assay was carried out by plating 1000 cells/well in 96-well plates. Cells were treated for 72 h in a range between to 25 nM and […] using serial dilutions. The inventors followed the manufacturer's protocol. In brief, CellTiter-Blue® reagent (G8081, Promega) was added after 72 h treatment and cells were incubated for 3 h before recording fluorescence intensities (λex. 560/20 nm; λem. 590/10 nm) using a Perkin Elmer Wallac 1420 Victor2 Microplate Reader.
Cell culture. MCF7 (ATCC) cells, DU-145 (ATCC) cells and FC1245 cells were cultured in Dulbecco's Modified Eagle Medium GlutaMAX (DMEM, ThermoFisher Scientific, 61965059) supplemented with 10% Fetal Bovine Serum (FBS, Gibco, 10270-106) and Penicillin-Streptomycin mixture (BioWhittaker/Lonza, DE17-602E) unless stated otherwise. Primary lung circulating tumor cells (Celprogen, 36107-34CTC, Lot 219411) were grown using stem cell complete media (Celprogen, M36102-29PS) until the third passage. Circulating cancer cells were grown in stem cell ECM T75-flasks (Celprogen, E36102-29-T75) and ECM 6-well plates (Celprogen, E36102-29-6Well). HMLER cells ([…]) naturally repressing E-cadherin, obtained from human mammary epithelial cells infected with a retrovirus carrying hTERT, SV40 and the oncogenic allele H-rasV12, and HMLER CD44 and TFRC ko clones were cultured in DMEM/F12 (Thermo Fisher Scientific, 31331093) supplemented with 10% FBS (Thermo Fisher Scientific, 10270106), 10 μg/mL insulin (Sigma-Aldrich, 10516), 0.5 μg/mL hydrocortisone (Sigma-Aldrich, H0888) and 0.5 μg/mL puromycin (Life Technologies, A11138-02), unless stated otherwise. HMLER CD44^high cells were also supplemented with 10 ng/mL EGF (Miltenyi Biotech, 130-097-750).

[1] = tested on: inflammatory genes in activated MDM; test: RNA-seq gene expression in activated MDM; type: cell-based, human; details: LCC-12 10 μM; FIG. 4A-C
Description: Cell culture. Peripheral blood samples were collected from distinct healthy donors (Etablissement Français du Sang). Pan monocytes were isolated by negative magnetic sorting using microbeads according to the manufacturer's instructions (Miltenyi Biotec, 130-096-537), and cultured in RPMI 1640 supplemented with glutamine (Thermo Fisher Scientific, 61870010), 10% fetal bovine serum and exposed to granulocyte-macrophage colony-stimulating factor (GM-CSF, Miltenyi Biotec, 130-093-866, 100 ng/mL) to induce differentiation into macrophages (MDM). […]
RNA-seq. […] Sequencing was carried out on a NovaSeq 6000 instrument from Illumina based on a 2×100 cycle mode (paired-end reads, 100 bases). Raw sequencing reads were first checked for quality with Fastqc (0.11.8) and trimmed for adapter sequences with the trimGalore (0.6.2) software. Trimmed reads were then aligned on the human hg38 reference genome using the STAR mapper (2.6.1b), up to the generation of a raw count table per gene (GENCODE annotation v29). […] Raw data from (Fernandes et al., 2016, 7, e00027-16; Gongalves et al., 2020, Nat. Commun. 11, 2282) were downloaded from the NCBI Short Read Archive under records PRJNA528433 and PRJNA290995 and processed as described above. […] Differential expression was assessed with the limma voom framework (v 3.44.3) (Ritchie et al., 2015, Nucleic Acids Res. 43, e47). […]

N=C(N)NC(=N)NCCCCCCCCCCCCNC(=N)NC(=N)N [LCC-12, lipophilic copper clamp C12]
improved IC50 compared with metformin (HMLER CD44^high/CD24^low; HMLER CD44high/CD24low): more than 2800 fold
IC50 (HMLER CD44^high/CD24^low; Homo sapiens, cell viability, 72 h treatment, read-out: IC50 against HMLER CD44^high/CD24^low): 8 µM
expression of inflammatory genes compared to activated MDM [1]: reduced expression of a subset of inflammatory genes
